The text below walks through data of patent publication EP2322149A1, “Methods and compositions for the treatment of ischemia” (Universidad del Pais Vasco, priority 2009, dated 2011).

Entries after “also recorded” stand apart in the source; their conditions may differ. Where a name gives a salt, the structure may show the parent alone.

Test [1] deals with optic nerve oligodendrocytes. Kind of test: Oxygen and glucose deprivation (OGD) cell death in oligodendrocyte cultures (calcein-AM). The format is cell-based, Sprague-Dawley rats. Particulars: 1h OGD, calcein 24h later; PPADS 100 µM, BBG 50 nM, CNQX 30 µM, APV 100 µM, apyrase 20 U/ml, ARL67156 100 µM, CBX 20 µM, FFA 100 µM, MFQ 1 nM. On the procedure:
(§1) Primary cultures of oligodendrocytes derived from optic nerves of 12 day-old Sprague-Dawley rats were obtained as previously described (Matute et al., 1997 Proc Natl Acad Sci U S A 94:8830-8835.).Cells were maintained at 37°C and 5% CO2 in a chemically defined medium (Matute et al., 1997 Proc Natl Acad Sci U S A 94:8830-8835.). After 2-4 days in vitro, cultures were composed of at least 98% 04/Ga1C^+ cells. No microglial cells were detected in these cultures. […] Cell death was determined 24h later using calcein-AM (Invitrogen) as previously described (Matute et al., 1997 Proc Natl Acad Sci U S A 94:8830-8835.). Antagonists were present during in vitro ischaemia and during the next 24h incubation period. […] To assay the levels of reactive oxygen species (ROS), cells were loaded with 40 µM 2',7'- dichlorodihyfluoresceindiacetate (DCFDA; Invitrogen) and 1 µM calcein red-orange (Molecular Probes) immediately after OGD. Calcein was used to quantify the number of cells within the reading field. Fluorescence was measured as above and values were plotted as the percentage of DCFDA/calcein red-orange fluorescence versus control. The changes in mitochondrial membrane potential were monitored with 5,5',6,6'-tetrachloro-1,1',3,3'-tetraethylbenzimidazolcarbocyanine iodide (JC-1; Molecular Probes). Immediately after OGD, cells were loaded with JC-1 (3 µM) at 37°C for 30 min. The changes in the membrane potential were calculated as the red (emission at 590)/green (emission at 520) ratio in each condition and results were normalized to control.

Test [2] concerns cultured optic nerve oligodendrocytes. Kind of test: ATP release measurement (luciferin/luciferase) in oligodendrocyte cultures after OGD. The format is cell-based, Sprague-Dawley rats. As for the experimental part: as §1
ATP levels were measured using a Luciferin/Luciferase assay kit (Invitrogen) after 1h normoxia or OGD in oligodendrocyte cultures and in isolated optic nerves according to the manufacturer's instructions. The luminescence was measured with a luminometer Synergy-HT (BioTek) with an integration time of 3 sec. Because ATP was measured in the culture medium and in the solution bathing optic nerves, the concentration of ATP at the extracellular surface, near the vicinity of the receptor was underestimated (Joseph et al., 2003. J Biol Chem 278:23331-23342). The limit of ATP detection was 1 nM and luminescence was linear with increasing ATP concentrations to 1000 nM. The total amount of ATP was calculated according to standard curves and ATP release was expressed in percentage vs control.

For the next test, the target named is T1, P2X7 (Homo sapiens, UniProt Q99572).
T1 sequence (Q99572 1-595): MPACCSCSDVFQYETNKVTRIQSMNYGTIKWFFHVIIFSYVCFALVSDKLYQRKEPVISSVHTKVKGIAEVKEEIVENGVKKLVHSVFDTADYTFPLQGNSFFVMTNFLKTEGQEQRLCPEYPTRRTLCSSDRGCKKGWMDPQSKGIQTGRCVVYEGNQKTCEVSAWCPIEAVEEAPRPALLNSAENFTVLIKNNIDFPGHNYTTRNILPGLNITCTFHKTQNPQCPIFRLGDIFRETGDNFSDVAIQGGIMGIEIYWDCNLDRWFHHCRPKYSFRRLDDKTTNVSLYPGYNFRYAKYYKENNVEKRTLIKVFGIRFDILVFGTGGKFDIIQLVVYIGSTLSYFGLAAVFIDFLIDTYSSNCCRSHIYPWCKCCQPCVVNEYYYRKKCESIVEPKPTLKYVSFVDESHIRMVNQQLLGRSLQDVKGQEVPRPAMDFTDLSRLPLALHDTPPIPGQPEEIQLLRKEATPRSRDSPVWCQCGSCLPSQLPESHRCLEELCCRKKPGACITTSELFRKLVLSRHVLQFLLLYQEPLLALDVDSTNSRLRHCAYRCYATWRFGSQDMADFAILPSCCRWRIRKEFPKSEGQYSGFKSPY
The note with it: cited from earlier work.

The target in another test is T2, P2X3 (Homo sapiens, UniProt P56373).
T2 sequence (P56373 1-397): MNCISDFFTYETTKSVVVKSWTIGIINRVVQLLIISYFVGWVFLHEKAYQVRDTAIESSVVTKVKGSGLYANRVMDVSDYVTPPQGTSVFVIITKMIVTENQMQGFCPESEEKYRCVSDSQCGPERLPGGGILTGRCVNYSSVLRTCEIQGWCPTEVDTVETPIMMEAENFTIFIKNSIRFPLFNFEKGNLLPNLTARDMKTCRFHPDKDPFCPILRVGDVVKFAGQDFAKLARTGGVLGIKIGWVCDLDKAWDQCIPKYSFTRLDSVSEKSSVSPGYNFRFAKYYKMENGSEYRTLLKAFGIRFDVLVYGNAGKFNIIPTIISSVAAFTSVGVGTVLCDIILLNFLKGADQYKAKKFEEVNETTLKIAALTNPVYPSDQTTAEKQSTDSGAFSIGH
The note with it: read-out: IC50 P2X3; cited from earlier work.

In the next test the target is T3, P2X2 (Homo sapiens, UniProt Q9UBL9).
T3 sequence (Q9UBL9 1-471): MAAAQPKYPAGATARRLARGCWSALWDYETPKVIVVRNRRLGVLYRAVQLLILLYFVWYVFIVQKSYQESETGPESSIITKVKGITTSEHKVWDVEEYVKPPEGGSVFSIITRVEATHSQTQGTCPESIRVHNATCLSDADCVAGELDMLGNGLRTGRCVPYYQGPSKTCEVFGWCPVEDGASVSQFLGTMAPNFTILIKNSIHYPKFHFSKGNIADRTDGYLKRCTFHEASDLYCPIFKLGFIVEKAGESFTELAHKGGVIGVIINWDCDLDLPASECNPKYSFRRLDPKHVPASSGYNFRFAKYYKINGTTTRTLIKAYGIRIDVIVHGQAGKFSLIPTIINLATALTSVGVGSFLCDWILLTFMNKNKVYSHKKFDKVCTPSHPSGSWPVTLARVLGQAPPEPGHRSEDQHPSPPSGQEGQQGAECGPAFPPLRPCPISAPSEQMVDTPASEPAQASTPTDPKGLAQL
The note with it: read-out: IC50 P2X2; cited from earlier work.

Another test addresses T4, P2X1 (Homo sapiens, UniProt P51575).
T4 sequence (P51575 1-399): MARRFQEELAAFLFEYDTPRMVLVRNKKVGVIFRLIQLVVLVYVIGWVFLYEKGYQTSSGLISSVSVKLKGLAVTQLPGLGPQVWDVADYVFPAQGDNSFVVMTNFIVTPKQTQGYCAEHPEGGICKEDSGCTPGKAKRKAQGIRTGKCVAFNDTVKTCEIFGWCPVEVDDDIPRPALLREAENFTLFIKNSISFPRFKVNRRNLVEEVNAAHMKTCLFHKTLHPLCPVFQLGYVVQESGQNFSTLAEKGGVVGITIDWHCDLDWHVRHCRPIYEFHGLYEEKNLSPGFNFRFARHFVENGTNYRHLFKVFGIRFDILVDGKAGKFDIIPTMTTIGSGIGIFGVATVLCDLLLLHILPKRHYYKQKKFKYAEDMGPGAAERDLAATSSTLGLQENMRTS
Particulars: read-out: IC50 P2X1; cited from earlier work.

The subject of the next test is optic nerves. In words: Optic nerve ischaemia (OGD), tissue damage by LDH release. More on the design: species or system rats. The note with it: P28 rat optic nerves, 1h OGD + 2h reperfusion; PPADS 1 mM, BBG 50 nM, oATP 1 mM, apyrase 20 U/ml, MFQ 1 µM, CBX 100 µM, FFA 1 mM. On the procedure:
After 1h OGD at 37°C, the medium was replaced with fresh solution containing glucose and equilibrated with 95% O2, 5% CO2 and the nerves were incubated for another 2h at 37°C to simulate reperfusion.
(In general: LDH in the medium is a marker of cell lysis.)

The target in the next test is P2X6 (Homo sapiens, UniProt O15547). The note with it: read-out: IC50 P2X6; cited from earlier work.
Chain of P2X6 (O15547 whole entry, species assumed): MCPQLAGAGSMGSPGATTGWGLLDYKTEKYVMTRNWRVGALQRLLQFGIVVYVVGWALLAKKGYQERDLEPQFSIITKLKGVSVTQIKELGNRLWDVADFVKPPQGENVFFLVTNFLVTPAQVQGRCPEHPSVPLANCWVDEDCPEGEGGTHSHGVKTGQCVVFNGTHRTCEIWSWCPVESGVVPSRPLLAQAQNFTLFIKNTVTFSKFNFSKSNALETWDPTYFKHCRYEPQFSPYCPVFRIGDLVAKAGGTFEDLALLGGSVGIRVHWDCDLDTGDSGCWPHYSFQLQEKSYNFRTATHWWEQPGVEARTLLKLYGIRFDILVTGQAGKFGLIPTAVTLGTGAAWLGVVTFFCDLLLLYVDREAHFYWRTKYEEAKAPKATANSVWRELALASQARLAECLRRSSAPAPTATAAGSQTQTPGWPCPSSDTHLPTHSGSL

As for `CCN(CC)c1ncnc2c1ncn2[C@@H]1O[C@H](COP(=O)(O)OP(=O)(O)C(Br)(Br)P(=O)(O)O)[C@@H](O)[C@H]1O` [ARL67156], in test [1], the “OGD-induced oligodendrocyte cell death” value is recorded as “increased; also recorded: potentiated”. In test [2] (1h OGD, ARL67156 100 µM, percentage vs control, OGD alone 181.2 ± 25.3 %), the “ATP concentration after OGD” value is 439.6 ± 71.0%. Besides, in test [2] (ARL67156 100 µM), the “ATP release after 1h OGD” value is given as “potentiated”.

`O=C(Nc1ccc(C(=O)Nc2ccc(C(=O)Nc3ccc(S(=O)(=O)O)c4cc(S(=O)(=O)O)cc(S(=O)(=O)O)c34)cc2)cc1)Nc1ccc(C(=O)Nc2ccc(C(=O)Nc3ccc(S(=O)(=O)O)c4cc(S(=O)(=O)O)cc(S(=O)(=O)O)c34)cc2)cc1` [NF279]: the IC50 at P2X7 is 2800 nM; at P2X3 it was 1600 nM; at P2X2, 770 nM; on P2X1 it was 2000 nM.

`O=C(O)c1ccccc1Nc1cccc(C(F)(F)F)c1` [FFA, 2-[3-(trifluoromethyl)anilino]benzoic acid]: in test [1], the “OGD-induced oligodendrocyte cell death” value is “inhibited”. Moreover, the “ATP levels after OGD” value in test [2] (1h OGD in the presence of ARL67156, CBX 20 µM, FFA 100 µM, MFQ 1 nM (figure legend)) is recorded as “significantly reduced”. In the test on optic nerves, the “ischaemia-induced damage to optic nerves (LDH release)” value is given as “reduced; also recorded: attenuated”.

Consider `Nc1ncnc2c1ncn2[C@@H]1O[C@H](COP(=O)(O)OP(=O)(O)OP(=O)(O)O)[C@H]2OC3(O[C@H]21)C([N+](=O)[O-])=CC(=[N+]([O-])[O-])C=C3[N+](=O)[O-]` (stereo partly shown) [TNP-ATP, monolithium salt of 2',3'-O-2,4,6-trinitrophenyl-adenosine 5'-triphosphate], for which, on P2X7, the IC50 was above 30000 nM.

On to `O=C(Nc1cc(C(=O)Nc2ccc(S(=O)(=O)O)cc2S(=O)(=O)O)cc(C(=O)Nc2ccc(S(=O)(=O)O)cc2S(=O)(=O)O)c1)Nc1cc(C(=O)Nc2ccc(S(=O)(=O)O)cc2S(=O)(=O)O)cc(C(=O)Nc2ccc(S(=O)(=O)O)cc2S(=O)(=O)O)c1` [NF449, octasodium salt of 4,4',4",4"'-(carbonylbis(imino-5,1,3-benzenetriylbis(carbonylimino)))tetrakis-benzene-1,3-disulfonic acid], for which the IC50 at P2X3 was below 6 nM.

Regarding `CN([C@@H](Cc1ccc(OS(=O)(=O)c2cccc3cnccc23)cc1)C(=O)N1CCN(c2ccccc2)CC1)S(=O)(=O)c1cccc2cnccc12` [KN-62, ester of 4-[(2S)-2-[(5-isoquinolinylsulfonyl)methylamino]-3-oxo-3-(4-phenyl-1-piperazinyl)propyl] phenyl isoquinolinesulfonic acid], the IC50 at P2X7 was 15 nM.

Turning to `Cc1nc(/N=N/c2cc(S(=O)(=O)O)ccc2S(=O)(=O)O)c(COP(=O)(O)O)c(C=O)c1O` [isoPPADS, tetrasodium salt of pyridoxalphosphate-6-azophenyl-1',4'-disulfonic acid], the IC50 at P2X3 was 1000 nM; on P2X1 it was 1000 to 5000 nM.

As for `Cc1ccc(C(=O)Nc2ccc(S(=O)(=O)O)c3cc(S(=O)(=O)O)cc(S(=O)(=O)O)c23)cc1NC(=O)c1cccc(NC(=O)Nc2cccc(C(=O)Nc3cc(C(=O)Nc4ccc(S(=O)(=O)O)c5cc(S(=O)(=O)O)cc(S(=O)(=O)O)c45)ccc3C)c2)c1` [Suramin, hexasodium salt of 8,8'-[carbonylbis[imino-3,1-phenylenecarbonylimino(4-methyl-3,1-phenylene)carbonylimino]] bisnaphthalene-1,3,5-trisulphonic acid], the 50% inhibitory concentration (IC50) on P2X6 is above 100000 nM; on P2X2 it was 1000 to 5000 nM.

In the case of `Cc1nc(N=Nc2cc(S(=O)(=O)O)ccc2S(=O)(=O)O)c2c(c1O)COP(=O)(O)OC2` [MRS2220, cyclic pyridoxine-alpha.4,5-monophosphate-6-azo-phenyl-2',5'disulfonate], the values for the IC50 at P2X3 and on P2X1 were 58000 nM and 10000 nM, respectively.

For “1-amino-4-[[4-[[4-chloro-6-[[3 (or 4)-sulfophenyl]amino]-1,3,5-triazin-2-yl]amino]-3-sulfophenyl]amino]-9,10-dihydro-9,10-dioxo-2-anthracenesulfonic acid [RB-2]”, on P2X2, the IC50 is 1000 nM.

As to `Cc1nc(N=Nc2cc(S(=O)(=O)O)c3cc([N+](=O)[O-])cc(S(=O)(=O)O)c3c2)c(CO[P+]([O-])(O)O)c(C=O)c1O` [PPNDS], at P2X2, the concentration for half-maximal inhibition (IC50) was 15 nM.

For `NC(N)=NC(=O)c1nc(Cl)c(N2CCCCCC2)nc1N` [HMA], the IC50 on P2X7 is 4500 nM.

As usually defined, the IC50 is the point on the concentration scale where inhibition reaches its midpoint.
